The record followed here is patent US20240368150A1 (Hoffmann-La Roche Inc., priority 2021, published 2024).

Read-outs that look alike come from different tables or passages of the source.

Experiment [1] concerns primary human T-cells.
Experiment [2] deals with primary human T-cells. In words: Proliferation assay after 5 days (CellTiter-Glo, CD3 stimulation; PBS counter screen). The class given is cell-based. To be noted: Homo sapiens, T-cell, 120 h, CD3 stimulation; for Emax: 5 days, normalized to reference compound A1 as stimulator control = 100%, DMSO neutral control, read-out: Emax proliferation (% activation); for EC50: primary human T-cells, CellTiter-Glo after 5 days, EC50 of fitted sigmoidal curve, read-out: Tcell Proliferation CD3 EC50. The procedure, abridged: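 Read-out: CellTiter-Glo 2.0 luminescence (ATP ∝ cell number) at day 5 after compound addition. Compounds activating unstimulated cells or reducing viability flagged.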
(In general: Cellular ATP, detected with luciferase, serves as a proxy for viable cell number.)

For `CN[C@@H](C)C(=O)N[C@H]1CS(=O)(=O)c2cc(F)c(-c3nnc(CC(F)(F)F)o3)cc2N(Cc2ccc(OC(F)(F)F)cc2)C1=O` [Example 61, (2S)—N-[(3R)-8-fluoro-1,1,4-trioxo-7-[5-(2,2,2-trifluoroethyl)-1,3,4-oxadiazol-2-yl]-5-[[4-(trifluoromethoxy)phenyl]methyl]-2,3-dihydro-1λ^6,5-benzothiazepin-3-yl]-2-(methylamino)propanamide], the EC50 in the experiment with primary human T-cells [1] is 1.91 µM; in the experiment on primary human T-cells [2], 0.625 µM. For the same compound, the Emax in the experiment with primary human T-cells [2] is 144%.

In the experiment with primary human T-cells [1], `N[C@H]1CS(=O)(=O)c2cc(F)c(-c3noc(N4CCOC5(CC5)C4)n3)cc2N(Cc2ccc(Cl)cc2)C1=O` [Example 194, (3R)-3-amino-5-[(4-chlorophenyl)methyl]-8-fluoro-7-[5-(4-oxa-7-azaspiro[2.5]octan-7-yl)-1,2,4-oxadiazol-3-yl]-1,1-dioxo-2,3-dihydro-1λ^6,5-benzothiazepin-4-one] displayed an EC50 of 0.0407 µM. In addition, in the experiment with primary human T-cells [2], the Emax was found to be 79% and the EC50 worked out at 0.0152 µM.

In turn, `N[C@H]1CS(=O)(=O)c2ccc(-c3nnc(N4CCC(F)(F)CC4)o3)cc2N(Cc2ccc(Cl)cc2)C1=O` [Example 396, (3R)-3-amino-5-[(4-chlorophenyl)methyl]-7-[5-(4,4-difluoro-1-piperidyl)-1,3,4-oxadiazol-2-yl]-1,1-dioxo-2,3-dihydro-1λ^6,5-benzothiazepin-4-one] gave an EC50 with primary human T-cells [1] of 0.937 µM. Moreover, in the experiment on primary human T-cells [2], the Emax is 87% and the EC50 came to 0.526 µM.

`CC1(C)CN(c2nnc(-c3ccc4c(c3)N(Cc3ccc(Cl)cc3)C(=O)[C@@H](N)CS4(=O)=O)o2)CCO1` [Example 395, (3R)-3-amino-5-[(4-chlorophenyl)methyl]-7-[5-(2,2-dimethylmorpholin-4-yl)-1,3,4-oxadiazol-2-yl]-1,1-dioxo-2,3-dihydro-1λ^6,5-benzothiazepin-4-one] had an EC50 in the experiment on primary human T-cells [1] of 1.12 µM. For the same compound, in the experiment on primary human T-cells [2], the Emax turned out to be 88% and the EC50 came out at 0.517 µM.

The compound `N[C@H]1CS(=O)(=O)c2cc(F)c(-c3nnc(C4CN(CCO)CC(F)(F)C4)o3)cc2N(Cc2ccc(Cl)cc2)C1=O` (stereo partly drawn) [Example 152, (3R)-3-amino-5-[(4-chlorophenyl)methyl]-7-[5-[5,5-difluoro-1-(2-hydroxyethyl)-3-piperidyl]-1,3,4-oxadiazol-2-yl]-8-fluoro-1,1-dioxo-2,3-dihydro-1λ^6,5-benzothiazepin-4-one] had an EC50 in the experiment on primary human T-cells [1] of 0.477 µM. Further, in the experiment on primary human T-cells [2], the Emax came to 78% and the EC50 stood at 0.549 µM.

Turning to `CC(C#N)c1nnc(-c2ccc3c(c2)N(Cc2ccc(Cl)cc2)C(=O)[C@@H](N)CS3(=O)=O)o1` (stereo partly drawn) [Example 367, 2-[5-[(3R)-3-amino-5-[(4-chlorophenyl)methyl]-1,1,4-trioxo-2,3-dihydro-1λ^6,5-benzothiazepin-7-yl]-1,3,4-oxadiazol-2-yl]propanenitrile], the EC50 in the experiment with primary human T-cells [1] turned out to be 0.576 µM. Besides, in the experiment with primary human T-cells [2], the Emax came out at 87% and the EC50 worked out at 3.69 µM.

As for `Cc1ccc(-c2nnc(-c3cc4c(cc3F)S(=O)(=O)C[C@H](N)C(=O)N4Cc3ccc(Cl)cc3)o2)cc1` [Example 106, (3R)-3-amino-5-[(4-chlorophenyl)methyl]-8-fluoro-1,1-dioxo-7-[5-(p-tolyl)-1,3,4-oxadiazol-2-yl]-2,3-dihydro-1λ^6,5-benzothiazepin-4-one], the EC50 in the experiment on primary human T-cells [1] turned out to be 0.784 µM; with primary human T-cells [2] it was 0.254 µM. In addition, in the experiment on primary human T-cells [2], the Emax stood at 111%.

In the experiment on primary human T-cells [1], `CC(=O)N1CC(c2nnc(-c3cc4c(cc3F)S(=O)(=O)C[C@H](N)C(=O)N4Cc3ccc(Cl)cc3)o2)CC(F)(F)C1` (stereo partly drawn) [Example 162, (3R)-7-[5-(1-acetyl-5,5-difluoro-3-piperidyl)-1,3,4-oxadiazol-2-yl]-3-amino-5-[(4-chlorophenyl)methyl]-8-fluoro-1,1-dioxo-2,3-dihydro-1λ^6,5-benzothiazepin-4-one] had an EC50 of 0.383 µM. For the same compound, in the experiment on primary human T-cells [2], the Emax turned out to be 84% and the EC50 was determined as 0.628 µM.

In the case of `N[C@H]1CS(=O)(=O)c2cc(F)c(-c3nnc(C4(CO)CC4)o3)cc2N(Cc2ccc(Cl)cc2)C1=O` [Example 65, (3R)-3-amino-5-[(4-chlorophenyl)methyl]-8-fluoro-7-[5-[1-(hydroxymethyl)cyclopropyl]-1,3,4-oxadiazol-2-yl]-1,1-dioxo-2,3-dihydro-1λ^6,5-benzothiazepin-4-one], the EC50 was determined as 3.85 µM with primary human T-cells [1] and 1.06 µM with primary human T-cells [2]. Moreover, the Emax in the experiment with primary human T-cells [2] was determined as 77%.

Turning to `N[C@H]1CS(=O)(=O)c2cc(F)c(-c3noc(C4(C(F)(F)F)CC4)n3)cc2N(Cc2ccc(Cl)cc2)C1=O` [Example 318, (3R)-3-amino-5-[(4-chlorophenyl)methyl]-8-fluoro-1,1-dioxo-7-[5-[1-(trifluoromethyl)cyclopropyl]-1,2,4-oxadiazol-3-yl]-2,3-dihydro-1λ^6,5-benzothiazepin-4-one], the EC50 in the experiment with primary human T-cells [1] was found to be 0.55 µM. Also, in the experiment with primary human T-cells [2], the Emax came to 140% and the EC50 was found to be 0.255 µM.

With `COC(C)(c1nnc(-c2ccc3c(c2)N(Cc2ccc(Cl)cc2)C(=O)[C@@H](N)CS3(=O)=O)o1)C(F)(F)F` (stereo partly drawn) [Example 372, (3R)-3-amino-5-[(4-chlorophenyl)methyl]-1,1-dioxo-7-[5-(2,2,2-trifluoro-1-methoxy-1-methyl-ethyl)-1,3,4-oxadiazol-2-yl]-2,3-dihydro-1λ^6,5-benzothiazepin-4-one], in the experiment on primary human T-cells [1], the EC50 turned out to be 1.29 µM. In the experiment with primary human T-cells [2], the Emax turned out to be 118% and the EC50 was determined as 0.367 µM.

Take `C#CCOCCOCCOCCCC(C)(C)c1nc(-c2cc3c(cc2F)S(=O)(=O)C[C@H](N)C(=O)N3Cc2ccc(Cl)cc2)no1` [Example 327, (3R)-3-amino-5-[(4-chlorophenyl)methyl]-7-[5-[1,1-dimethyl-4-[2-(2-prop-2-ynoxyethoxy)ethoxy]butyl]-1,2,4-oxadiazol-3-yl]-8-fluoro-1,1-dioxo-2,3-dihydro-1λ^6,5-benzothiazepin-4-one]: in the experiment on primary human T-cells [1], the EC50 turned out to be 2.33 µM. In the experiment with primary human T-cells [2], the Emax turned out to be 104% and the EC50 came out at 0.722 µM.

Consider `N[C@H]1CS(=O)(=O)c2cc(F)c(-c3nnc(C4(C(F)F)CNC4)o3)cc2N(Cc2ccc(Cl)cc2)C1=O` [Example 112, (3R)-3-amino-5-[(4-chlorophenyl)methyl]-7-[5-[3-(difluoromethyl)azetidin-3-yl]-1,3,4-oxadiazol-2-yl]-8-fluoro-1,1-dioxo-2,3-dihydro-1λ^6,5-benzothiazepin-4-one], for which, in the experiment with primary human T-cells [1], the EC50 was determined as 3.23 µM. Also, in the experiment on primary human T-cells [2], the Emax came to 124% and the EC50 was found to be 1.05 µM.

`CN(C)C(=O)c1nc(-c2cc3c(cc2F)S(=O)(=O)C[C@H](N)C(=O)N3Cc2ccc(OC(F)(F)F)cc2)no1` [Example 328, 3-[(3R)-3-amino-8-fluoro-1,1,4-trioxo-5-[[4-(trifluoromethoxy)phenyl]methyl]-2,3-dihydro-1λ^6,5-benzothiazepin-7-yl]-N,N-dimethyl-1,2,4-oxadiazole-5-carboxamide] came in with an EC50 in the experiment on primary human T-cells [1] of 1.08 µM. In addition, in the experiment with primary human T-cells [2], the Emax came to 120% and the EC50 came to 1.96 µM.

As to `N[C@H]1CS(=O)(=O)c2ccc(-c3nnc(N4CC5(CCCOC5)C4)o3)cc2N(Cc2ccc(Cl)cc2)C1=O` [Example 405, (3R)-3-amino-5-[(4-chlorophenyl)methyl]-7-[5-(6-oxa-2-azaspiro[3.5]nonan-2-yl)-1,3,4-oxadiazol-2-yl]-1,1-dioxo-2,3-dihydro-1λ^6,5-benzothiazepin-4-one], the EC50 with primary human T-cells [1] was found to be 1.32 µM. In the experiment on primary human T-cells [2], the Emax stood at 86% and the EC50 came to 1.08 µM.

`CN1CC(c2nnc(-c3ccc4c(c3)N(Cc3ccc(Cl)cc3)C(=O)[C@@H](N)CS4(=O)=O)o2)CC(F)(F)C1` (stereo partly drawn) [Example 385, (3R)-3-amino-5-[(4-chlorophenyl)methyl]-7-[5-(5,5-difluoro-1-methyl-3-piperidyl)-1,3,4-oxadiazol-2-yl]-1,1-dioxo-2,3-dihydro-1λ^6,5-benzothiazepin-4-one] returned an EC50 in the experiment on primary human T-cells [1] of 0.895 µM. In the experiment with primary human T-cells [2], the Emax was 106% and the EC50 is 1.49 µM.

For `N[C@H]1CS(=O)(=O)c2ccc(-c3nnc(N4CC(CO)(CCl)C4)o3)cc2N(Cc2ccc(Cl)cc2)C1=O` [Example 400, (3R)-3-amino-7-[5-[3-(chloromethyl)-3-(hydroxymethyl)azetidin-1-yl]-1,3,4-oxadiazol-2-yl]-5-[(4-chlorophenyl)methyl]-1,1-dioxo-2,3-dihydro-1λ^6,5-benzothiazepin-4-one], the values for the EC50 in the experiment on primary human T-cells [1] and in the experiment on primary human T-cells [2] were 4.05 µM and 5.22 µM, respectively. Besides, the Emax in the experiment on primary human T-cells [2] came to 72%.

In turn, `N[C@H]1CS(=O)(=O)c2cc(F)c(-c3nc4n(n3)CCNC4C(F)(F)F)cc2N(Cc2ccc(OC(F)(F)F)cc2)C1=O` (stereo partly drawn) [Example 288, (3R)-3-amino-8-fluoro-1,1-dioxo-5-[[4-(trifluoromethoxy)phenyl]methyl]-7-[8-(trifluoromethyl)-5,6,7,8-tetrahydro-[1,2,4]triazolo[1,5-a]pyrazin-2-yl]-2,3-dihydro-1λ^6,5-benzothiazepin-4-one] yielded an EC50 with primary human T-cells [1] of more than 10 µM. Besides, in the experiment with primary human T-cells [2], the Emax is 71% and the EC50 was 4.31 µM.

`COC(F)(c1nc(-c2cc3c(cc2F)S(=N)(=O)C[C@H](N)C(=O)N3Cc2ccc(Cl)cc2)no1)C(F)(F)F` (stereo partly drawn) [Example 515, (3R)-3-amino-5-[(4-chlorophenyl)methyl]-8-fluoro-1-imino-1-oxo-7-[5-(1,2,2,2-tetrafluoro-1-methoxy-ethyl)-1,2,4-oxadiazol-3-yl]-2,3-dihydro-1λ^6,5-benzothiazepin-4-one]: the figures for the EC50 in the experiment with primary human T-cells [1] and in the experiment on primary human T-cells [2] were 4.07 µM and 4.91 µM, respectively. In the experiment with primary human T-cells [2], the Emax is 63%.

The compound `NC(CNc1nc(-c2cc3c(cc2F)S(=O)(=O)C[C@H](N)C(=O)N3Cc2ccc(Cl)cc2)no1)C(F)(F)F` (stereo partly drawn) [Example 202, (3R)-3-amino-7-[5-[(2-amino-3,3,3-trifluoro-propyl)amino]-1,2,4-oxadiazol-3-yl]-5-[(4-chlorophenyl)methyl]-8-fluoro-1,1-dioxo-2,3-dihydro-1λ^6,5-benzothiazepin-4-one] displayed an EC50 in the experiment on primary human T-cells [1] of 1.3 µM. In the experiment on primary human T-cells [2], the Emax is 57% and the EC50 is 1.43 µM.
